In patent US8846694B2, “Pyrrolidone derivatives for use as MetAP-2 inhibitors” (Merck Patent GmbH, priority 2008, dated 2014):
Structures can show the parent of a compound that is named as a salt.

Molecular target: MetAP-2 (Homo sapiens, UniProt P50579)
Experiment: MetAP-2 activity measurement (coupled enzymatic reactions, substrate Met-Arg-Ser, photometric at 450 nm)
Format: biochemical
Conditions: read-out: IC50 enzyme (Inhibition of MetAP-2)
Description: MetAP-2 Activity Measurement
The MetAP-2 activity is determined by coupling enzymatic reactions. The tripeptide Met-Arg-Ser (MAS) is employed as substrate. The methionine liberated is firstly converted into Metox and H2O2 by L-aminooxidase (AAO). In the second step, the peroxidase (POD) with the aid of the H2O2 catalyses the oxidation of the leukodye dianisidine to dianisidineox, the increase of which is detected photometrically at 450 nm.
MetAP-2 activity can be recorded continuously as kinetics. The reaction scheme illustrates that one mol of dianisidineox is formed per mol of methionene. The MetAP-2 enzyme activity can therefore be calculated directly as Δ absorption per time unit. […] of the MetAP-2 activity (mol of Met/time unit) is possible with the aid of the dianisidineox extinction coefficient.
The change in extinction per time unit is depicted graphically and a slope calculation is carried out in the visually linear region of the reaction.

MetAP-2, sequence (P50579 whole entry, species assumed): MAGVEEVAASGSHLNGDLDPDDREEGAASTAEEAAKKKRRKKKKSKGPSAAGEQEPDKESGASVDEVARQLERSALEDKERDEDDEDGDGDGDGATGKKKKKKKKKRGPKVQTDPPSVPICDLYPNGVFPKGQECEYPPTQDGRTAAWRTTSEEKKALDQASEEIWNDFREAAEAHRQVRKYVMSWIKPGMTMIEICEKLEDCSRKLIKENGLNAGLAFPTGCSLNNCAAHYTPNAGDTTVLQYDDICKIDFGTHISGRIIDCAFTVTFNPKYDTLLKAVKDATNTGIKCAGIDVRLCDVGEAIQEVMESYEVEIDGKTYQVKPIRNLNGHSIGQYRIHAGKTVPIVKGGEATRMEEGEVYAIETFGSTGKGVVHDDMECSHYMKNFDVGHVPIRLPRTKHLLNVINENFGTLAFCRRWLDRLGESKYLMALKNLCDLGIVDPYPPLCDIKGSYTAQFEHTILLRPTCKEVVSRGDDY

Structure (SMILES) | IC50
c1cc(OC[C@H]2CCCN2c2ncnc3[nH]cnc23)c2nccc(CN3CCOCC3)c2c1 [A56, 4-Morpholin-4-ylmethyl-8-[(R)-1-(9H-purin-6-yl)-pyrrolidin-2-ylmethoxy]quinoline] | 1000 to 10000 nM
O=c1c2ccccc2ccn1C[C@H]1CCCN1c1ncnc2[nH]cnc12 [A59, 2-[(R)-1-(9H-Purin-6-yl)pyrrolidin-2-ylmethyl]-2H-isoquinolin-1-one] | > 10000 nM
c1ccc2c(OC[C@H]3CCCN3c3ncnc4[nH]cnc34)c(CN3CCCCC3)ccc2c1 [A61, 6-[(R)-2-(2-Piperidin-1-ylmethylnaphthalen-1-yloxymethyl)pyrroiidin-1-yl]-9H-purine] | > 10000 nM
c1ccc(-c2ccccc2OC[C@H]2CCCN2c2ncnc3[nH]cnc23)cc1 [A62, 6-[(R)-2-(Biphenyl-2-yloxymethyl)pyrrolidin-1-yl]-9H-purine] | 1000 to 10000 nM
c1ccc(-c2cccc(OC[C@H]3CCCN3c3ncnc4[nH]cnc34)c2)cc1 [A63, 6-[(R)-2-(Biphenyl-3-yloxymethyl)pyrrolidin-1-yl]-9H-purine] | 1000 to 10000 nM
c1ccc(-c2ccc(OC[C@H]3CCCN3c3ncnc4[nH]cnc34)cc2)cc1 [A64, 6-[(R)-2-(Biphenyl-4-yloxymethyl)pyrrolidin-1-yl]-9H-purine] | > 10000 nM
CC(O)CNC(=O)c1cc(OC[C@H]2CCCN2c2ncnc3[nH]cnc23)c2ccccc2n1 (stereo partly drawn) [A68, N-(2-Hydroxypropyl)-4-[(R)-1-(9H-purin-6-yl)-pyrrolidin-2-ylmethoxy]quinoline-2-carboxamide hydrochloride] | 10 to 1000 nM
O=C(NC1CCCC1)c1cc(OC[C@H]2CCCN2c2ncnc3[nH]cnc23)c2ccccc2n1 [A69, N-Cyclopentyl-4-[(R)-1-(9H-purin-6-yl)-pyrrolidin-2-ylmethoxy]quinoline-2-carboxamide] | 1000 to 10000 nM
CC1(C)Cc2cccc(OC[C@H]3CCCN3c3ncnc4[nH]cnc34)c2O1 [A72, 6-[(R)-2-(2,2-Dimethyl-2,3-dihydrobenzofuran-7-yloxymethyl)pyrro!idin-1-yl]-9H-purine] | 1000 to 10000 nM
c1cc(OC[C@H]2CCCN2c2ncnc3[nH]cnc23)c2ncoc2c1 [A73, 6-[(R)-2-(Benzoxazol-4-yloxymethyl)pyrrolidin-1-yl]-9H-purine] | 1000 to 10000 nM
Cc1cc2c(OC[C@H]3CCCN3c3ncnc4[nH]cnc34)cccc2n1C(=O)C(F)(F)F [A75, 2,2,2-Trifluoro-1-{2-methyl-4-[(R)-1-(9H-purin-6-yl)pyrrolidin-2-ylmethoxy]indol-1-yl}ethanone] | 1000 to 10000 nM
O=C(O)/C=C/c1ccccc1OC[C@H]1CCCN1c1ncnc2[nH]cnc12 [A76, (E)-3-{2-[(R)-1-(9H-Purin-6-yl)pyrrolidin-2-yl-methoxy]phenyl}acrylic acid] | > 10000 nM
Fc1ccc(-c2ncc(OC[C@H]3CCCN3c3ncnc4[nH]cnc34)cn2)cc1 [A77, 6-{(R)-2-[2-(4-Fluorophenyl)pyrimidin-5-yl-oxymethyl]pyrrolidin-1-yl}-9H-purine] | 1000 to 10000 nM
CNC(=O)/C=C/c1ccccc1OC[C@H]1CCCN1c1ncnc2[nH]cnc12 [A78, (E)-N-Methyl-3-{2-[(R)-1-(9H-purin-6-yl)-pyrrolidin-2-ylmethoxy]phenyl}acrylamide] | 1000 to 10000 nM
O=C(NCC1CC(O)C1)c1cc(OC[C@H]2CCCN2c2ncnc3[nH]cnc23)c2ccccc2n1 (stereo partly drawn) [A88, N-(3-Hydroxycyclobutylmethyl)-4-[(R)-1-(9H-purin-6-yl)pyrrolidin-2-ylmethoxy]quinoline-2-carboxamide] | 10 to 1000 nM
Cc1cc2c(OC[C@H]3CCCN3c3ncnc4[nH]cnc34)cccc2cn1 [A89, 3-Methyl-5-[(R)-1-(9H-purin-6-yl)pyrrolidin-2-yl-methoxy]isoquinoline] | 10 to 1000 nM
CC(=O)N(CCN1CCOCC1)Cc1ccc(OC[C@H]2CCCN2c2ncnc3[nH]cnc23)c2ccccc12 [A92, N-(2-Morpholin-4-ylethyl)-N-{4-[(R)-1-(9H-purin-6-yl)pyrrolidin-2-ylmethoxy]naphthalen-1-yl-methyl}acetamide] | 10 to 1000 nM
c1ccc2c(OC[C@H]3CCCN3c3ncnc4[nH]cnc34)ccnc2c1 [A93, 4-[(R)-1-(9H-Purin-6-yl)pyrrolidin-2-yl-methoxy]quinoline] | 10 to 1000 nM

Results, then the compound that gave them:

IC50 | Structure (SMILES)
10 to 1000 nM | CCNC(=O)c1cc(OC[C@H]2CCCN2c2ncnc3[nH]cnc23)c2ccccc2n1 [A50, N-Ethyl-4-[(R)-1-(9H-purin-6-yl)pyrrolidin-2-yl-methoxy]quinoline-2-carboxamide formate]
10 to 1000 nM | O=C1CCCc2c(OC[C@H]3CCCN3c3ncnc4[nH]cnc34)cccc21 [A51]
10 to 1000 nM | O=C(O)/C=C1/CCc2c(OC[C@H]3CCCN3c3ncnc4[nH]cnc34)cccc2C1=O [A53, [1-Oxo-5-[(R)-1-(9H-purin-6-yl)pyrrolidin-2-yl-methoxy]-3,4-dihydro-1H-naphthalen-(2Z)-ylidene]acetic acid]
10 to 1000 nM | c1cc2c(c(OC[C@H]3CCCN3c3ncnc4[nH]cnc34)c1)CCCC2 [A55, 6-[(R)-2-(5,6,7,8-Tetrahydronaphthalen-1-yl-oxymethyl)pyrrolidin-1-yl]-9H-purine]
10 to 1000 nM | Clc1ncc(OC[C@H]2CCCN2c2ncnc3[nH]cnc23)c2ccccc12 [A57, 1 -Chloro-4-[(R)-1-(9H-purin-6-yl)pyrrolidin-2-yl-methoxy]isoquinoline]
10 to 1000 nM | COCCOc1cccc2c(OC[C@H]3CCCN3c3ncnc4[nH]cnc34)cccc12 [A58, 6-{(R)-2-[5-(2-Methoxyethoxy)naphthalen-1-yl-oxymethyl]pyrrolidin-1-yl}-9H-purine]
10 to 1000 nM | c1ccc2c(OC[C@H]3CCCN3c3ncnc4[nH]cnc34)ccc(CNCCN3CCOCC3)c2c1 [A60, (2-Morpholin-4-ylethyl)-{4-[(R)-1-(9H-purin-6-yl)-pyrrolidin-2-ylmethoxy]naphthalen-1-yl-methyl}amine]
10 to 1000 nM | COC(=O)c1cccc(-c2ncc(OC[C@H]3CCCN3c3ncnc4[nH]cnc34)cn2)c1 [A65, Methyl 3-{5-[(R)-1-(9H-purin-6-yl)pyrrolidin-2-yl-methoxy]pyrimidin-2-yl}benzoate]
10 to 1000 nM | O=C(NCCN1CCOCC1)c1cccc(-c2ncc(OC[C@H]3CCCN3c3ncnc4[nH]cnc34)cn2)c1 [A66, N-(2-Morpholin-4-ylethyl)-3-{5-[(R)-1-(9H-purin-6-yl)pyrrolidin-2-ylmethoxy]pyrimidin-2-yl}-benzamide]
10 to 1000 nM | CNC(=O)/C=C1/CCc2c(OC[C@H]3CCCN3c3ncnc4[nH]cnc34)cccc2C1=O [A67, N-Methyl-2-[1-oxo-5-[(R)-1-(9H-purin-6-yl)-pyrrolidin-2-ylmethoxy]-3,4-dihydro-1H-naphthalen-(2Z)-ylidene]acetamide]
10 to 1000 nM | CCCCNC(=O)c1cc(OC[C@H]2CCCN2c2ncnc3[nH]cnc23)c2ccccc2n1 [A70, N-Butyl-4-[(R)-1-(9H-purin-6-yl)pyrrolidin-2-yl-methoxy]quinoline-2-carboxamide]
10 to 1000 nM | CCCNC(=O)c1cc(OC[C@H]2CCCN2c2ncnc3[nH]cnc23)c2ccccc2n1 [A71, N-Propyl-4-[(R)-1-(9H-purin-6-yl)pyrrolidin-2-yl-methoxy]quinoline-2-carboxamide]
10 to 1000 nM | CCOC(=O)/C=C/c1ccccc1OC[C@H]1CCCN1c1ncnc2[nH]cnc12 [A74, Ethyl (E)-3-{2-[(R)-1-(9H-purin-6-yl)pyrrolidin-2-ylmethoxy]phenyl}acrylate]
10 to 1000 nM | O=C(/C=C/c1ccccc1OC[C@H]1CCCN1c1ncnc2[nH]cnc12)NCCCO [A79, (E)-N-(3-Hydroxypropyl)-3-{2-[(R)-1-(9H-purin-6-yl)pyrrolidin-2-ylmethoxy]phenyl}acrylamide]
10 to 1000 nM | O=C(NC1CCC1)c1cc(OC[C@H]2CCCN2c2ncnc3[nH]cnc23)c2ccccc2n1 [A80, N-Cyclobutyl-4-[(R)-1-(9H-purin-6-yl)pyrrolidin-2-ylmethoxy]quinoline-2-carboxamide]
10 to 1000 nM | CCCCCNC(=O)c1cc(OC[C@H]2CCCN2c2ncnc3[nH]cnc23)c2ccccc2n1 [A81, N-Pentyl-4-[(R)-1-(9H-purin-6-yl)pyrrolidin-2-yl-methoxy]quinoline-2-carboxamide]
10 to 1000 nM | Cn1ncc(Cl)c1/C=C1/CCc2c(OC[C@H]3CCCN3c3ncnc4[nH]cnc34)cccc2C1=O [A82, 2-[1-(4-Chloro-2-methyl-2H-pyrazol-3-yl)meth-(Z)-ylidene]-5-[(R)-1-(9H-purin-6-yl)pyrrolidin-2-ylmethoxy]-3,4-dihydro-2H-naphthalen-1-one]
10 to 1000 nM | O=C1/C(=C\c2cc[nH]n2)CCc2c(OC[C@H]3CCCN3c3ncnc4[nH]cnc34)cccc21 [A83, 5-[(R)-1-(9H-Purin-6-yl)pyrrolidin-2-ylmethoxy]-2-[1-(1H-pyrazol-3-yl)meth-(Z)-yildene]-3,4-dihydro-2H-naphthaien-1-one]
10 to 1000 nM | O=C(NCCO)c1cc(OC[C@H]2CCCN2c2ncnc3[nH]cnc23)c2ccccc2n1 [A84, N-(2-Hydroxyethyl)-4-[(R)-1-(9H-purin-6-yl)-pyrrolidin-2-ylmethoxy]quinoline-2-carboxamide]
10 to 1000 nM | O=C(NCCCO)c1cc(OC[C@H]2CCCN2c2ncnc3[nH]cnc23)c2ccccc2n1 [A85, N-(3-Hydroxypropyl)-4-[(R)-1-(9H-purin-6-yl)-pyrrolidin-2-ylmethoxy]quinoline-2-carboxamide]
10 to 1000 nM | c1cc(OC[C@H]2CCCN2c2ncnc3[nH]cnc23)c2cccnc2c1 [A86, 5-[(R)-1-(9H-Purin-6-yl)pyrrolidin-2-yl-methoxy]quinoline]
10 to 1000 nM | c1cc(OC[C@H]2CCCN2c2ncnc3[nH]cnc23)c2cnccc2c1 [A87, 8-[(R)-1-(9H-Purin-6-yl)pyrrolidin-2-yl-methoxy]isoquinoline]
